One test concerns the target PI3K delta (Homo sapiens (Human), UniProt O00329). The test can be described thus: Enzymatic PI3K delta isoform inhibition (lipid kinase activity, Kinase-Glo luminescence). It counts as biochemical. The conditions noted are these: Enzymatic assay. Put shortly: (§1)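 IC50s derive from 4-parameter logistic fits of % inhibition across 8 concentrations (usually 10 to 0.003 μM). Lipid kinase reaction: PI3K (10 nM) plus phosphatidylinositol (5 μg/mL) started with 2 μM ATP, stopped near 50% ATP depletion; leftover ATP quantified by Kinase-Glo luminescence.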
Background: Kinase-Glo measures the ATP left after a reaction by luminescence.

The target in another test is PI3K alpha (Homo sapiens (Human), UniProt P42336). The test can be described thus: Enzymatic PI3K alpha isoform inhibition (lipid kinase activity, Kinase-Glo luminescence). The conditions noted are these: Enzymatic assay. It counts as biochemical. Put shortly: as §1
Sequence of PI3K alpha (P42336 other isoform, or with tags, fused parts or gaps): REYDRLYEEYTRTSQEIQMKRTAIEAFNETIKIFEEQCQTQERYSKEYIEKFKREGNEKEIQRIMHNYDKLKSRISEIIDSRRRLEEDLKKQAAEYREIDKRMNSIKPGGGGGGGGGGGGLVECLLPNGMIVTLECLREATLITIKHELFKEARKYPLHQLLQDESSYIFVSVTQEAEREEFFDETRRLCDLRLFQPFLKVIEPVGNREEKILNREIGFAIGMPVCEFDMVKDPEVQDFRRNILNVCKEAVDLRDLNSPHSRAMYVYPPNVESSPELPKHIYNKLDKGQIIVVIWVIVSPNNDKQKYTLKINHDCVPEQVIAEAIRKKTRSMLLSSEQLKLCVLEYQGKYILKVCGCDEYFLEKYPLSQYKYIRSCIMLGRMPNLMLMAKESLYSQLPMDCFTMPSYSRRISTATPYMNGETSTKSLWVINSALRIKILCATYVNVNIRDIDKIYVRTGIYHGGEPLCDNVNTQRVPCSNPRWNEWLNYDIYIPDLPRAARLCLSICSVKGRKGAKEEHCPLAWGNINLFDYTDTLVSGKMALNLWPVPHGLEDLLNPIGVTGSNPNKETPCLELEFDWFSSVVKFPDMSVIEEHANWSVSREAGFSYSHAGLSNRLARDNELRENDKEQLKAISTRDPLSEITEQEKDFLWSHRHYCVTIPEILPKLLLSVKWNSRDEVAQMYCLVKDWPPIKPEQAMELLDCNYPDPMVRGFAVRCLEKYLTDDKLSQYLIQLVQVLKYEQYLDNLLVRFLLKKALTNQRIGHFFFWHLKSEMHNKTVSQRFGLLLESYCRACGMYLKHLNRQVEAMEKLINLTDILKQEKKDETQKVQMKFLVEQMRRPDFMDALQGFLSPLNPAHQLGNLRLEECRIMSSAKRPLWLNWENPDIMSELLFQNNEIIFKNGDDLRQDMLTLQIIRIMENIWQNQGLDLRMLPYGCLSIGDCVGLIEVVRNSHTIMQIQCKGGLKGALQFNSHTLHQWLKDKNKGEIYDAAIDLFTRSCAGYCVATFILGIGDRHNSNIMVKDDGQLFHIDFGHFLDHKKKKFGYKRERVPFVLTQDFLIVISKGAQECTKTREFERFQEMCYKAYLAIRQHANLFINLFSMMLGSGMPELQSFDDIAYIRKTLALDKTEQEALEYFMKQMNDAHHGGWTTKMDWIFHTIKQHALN

pIC50: −log10 of the molar value.

Usually pIC50 stands for −log10 of the IC50, conventionally taken in molar units. A high value points to a low IC50.

Sequence of PI3K delta (O00329 other isoform, or with tags, fused parts or gaps linker GGGGGG): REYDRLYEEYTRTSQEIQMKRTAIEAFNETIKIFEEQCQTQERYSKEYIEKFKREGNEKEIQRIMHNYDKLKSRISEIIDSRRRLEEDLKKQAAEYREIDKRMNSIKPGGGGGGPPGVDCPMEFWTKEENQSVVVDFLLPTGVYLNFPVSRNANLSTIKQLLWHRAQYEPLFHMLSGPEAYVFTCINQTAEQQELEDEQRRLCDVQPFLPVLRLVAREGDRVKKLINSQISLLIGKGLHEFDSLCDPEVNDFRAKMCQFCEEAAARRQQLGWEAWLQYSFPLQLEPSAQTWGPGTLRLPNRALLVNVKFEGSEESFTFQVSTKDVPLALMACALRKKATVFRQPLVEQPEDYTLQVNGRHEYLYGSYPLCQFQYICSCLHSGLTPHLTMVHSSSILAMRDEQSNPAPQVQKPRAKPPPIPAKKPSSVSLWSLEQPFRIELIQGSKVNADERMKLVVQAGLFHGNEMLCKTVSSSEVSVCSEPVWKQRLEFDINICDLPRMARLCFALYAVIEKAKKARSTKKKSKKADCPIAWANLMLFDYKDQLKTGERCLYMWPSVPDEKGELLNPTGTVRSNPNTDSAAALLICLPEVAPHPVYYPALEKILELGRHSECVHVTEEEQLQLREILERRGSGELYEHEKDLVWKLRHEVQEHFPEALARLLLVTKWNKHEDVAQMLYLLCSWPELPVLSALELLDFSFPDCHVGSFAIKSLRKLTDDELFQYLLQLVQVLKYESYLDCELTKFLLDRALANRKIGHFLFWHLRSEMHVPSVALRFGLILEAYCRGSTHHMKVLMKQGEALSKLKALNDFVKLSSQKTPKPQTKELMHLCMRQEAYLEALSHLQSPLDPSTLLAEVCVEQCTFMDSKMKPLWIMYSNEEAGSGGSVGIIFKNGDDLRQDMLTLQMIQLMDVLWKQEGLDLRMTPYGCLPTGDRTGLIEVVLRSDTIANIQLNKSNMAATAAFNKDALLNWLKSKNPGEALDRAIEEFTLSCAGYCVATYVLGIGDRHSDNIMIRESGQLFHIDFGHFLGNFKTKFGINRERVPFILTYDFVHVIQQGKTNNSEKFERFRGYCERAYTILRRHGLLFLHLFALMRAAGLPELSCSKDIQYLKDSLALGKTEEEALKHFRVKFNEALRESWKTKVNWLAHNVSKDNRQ

`CCS(=O)(=O)N1CC[C@H](Oc2ccc3c(c2)N(c2cnc(S(C)(=O)=O)c(C)c2)CCO3)C1` [Example B84, 6-((S)-1-Ethanesulfonyl-pyrrolidin-3-yloxy)-4-(6-methanesulfonyl-5-methyl-pyridin-3-yl)-3,4-dihydro-2H-benzo[1,4]oxazine]: the pIC50 is 7.10 against PI3K delta and 6.46 at PI3K alpha.

As for `CS(=O)(=O)c1ncc(N2CCOc3ccc(O[C@H]4CCN(C(=O)C5CCOCC5)C4)cc32)cc1F` [Example B86, {(S)-3-[4-(5-Fluoro-6-methanesulfonyl-pyridin-3-yl)-3,4-dihydro-2H-benzo[1,4]oxazin-6-yloxy]-pyrrolidin-1-yl}-(tetrahydro-pyran-4-yl)-methanone], the negative logarithm of the IC50 (pIC50) against PI3K delta is 7.21; on PI3K alpha it was 5.18.

For the compound `CCS(=O)(=O)c1ccc(N2CCOc3ccc(O[C@H]4CCN(C(=O)C5CCOCC5)C4)cc32)cn1` [Example B87, {(S)-3-[4-(6-Ethanesulfonyl-pyridin-3-yl)-3,4-dihydro-2H-benzo[1,4]oxazin-6-yloxy]-pyrrolidin-1-yl}-(tetrahydro-pyran-4-yl)-methanone], the negative-log IC50 (pIC50) against PI3K delta was 7.54; against PI3K alpha, 5.15.

`COc1ncc(N2CCOc3ccc(O[C@H]4CCN(C(=O)c5cncn5C)C4)cc32)cc1C` [Example B88, {(S)-3-[4-(6-Methoxy-5-methyl-pyridin-3-yl)-3,4-dihydro-2H-benzo[1,4]oxazin-6-yloxy]-pyrrolidin-1-yl}-(3-methyl-3H-imidazol-4-yl)-methanone]: the pIC50 is 8.10 against PI3K delta and 6.63 against PI3K alpha.

On to `COc1ncc(N2CCOc3ccc(O[C@H]4CCN(C(=O)c5cn(C)cn5)C4)cc32)cc1C` [Example B89, {(S)-3-[4-(6-Methoxy-5-methyl-pyridin-3-yl)-3,4-dihydro-2H-benzo[1,4]oxazin-6-yloxy]-pyrrolidin-1-yl}-(1-methyl-1H-imidazol-4-yl)-methanone], for which the pIC50 against PI3K delta was 8.05; at PI3K alpha, 6.88.

On to `COc1ncc(N2CCOc3ccc(O[C@H]4CCN(C(=O)C5CCN(C(C)=O)CC5)C4)cc32)cc1C` [Example B90, 1-(4-{(S)-3-[4-(6-Methoxy-5-methyl-pyridin-3-yl)-3,4-dihydro-2H-benzo[1,4]oxazin-6-yloxy]-pyrrolidine-1-carbonyl}-piperidin-1-yl)-ethanone], for which the negative logarithm of the IC50 (pIC50) is 7.96 at PI3K delta and 5.84 at PI3K alpha.

In the case of `COc1ncc(N2CCOc3ccc(O[C@H]4CCN(C(=O)c5cc[nH]c(=O)c5)C4)cc32)cc1C` [Example B91, 4-{(S)-3-[4-(6-Methoxy-5-methyl-pyridin-3-yl)-3,4-dihydro-2H-benzo[1,4]oxazin-6-yloxy]-pyrrolidine-1-carbonyl}-1H-pyridin-2-one], the pIC50 at PI3K delta is 7.92; at PI3K alpha, 6.45.

Take `COc1ncc(N2CCOc3ccc(O[C@H]4CCN(C(=O)c5ccc(=O)[nH]c5)C4)cc32)cc1C` [Example B92, 5-{(S)-3-[4-(6-Methoxy-5-methyl-pyridin-3-yl)-3,4-dihydro-2H-benzo[1,4]oxazin-6-yloxy]-pyrrolidine-1-carbonyl}-1H-pyridin-2-one]: the pIC50 was 8.10 against PI3K delta and 6.46 on PI3K alpha.

Turning to `COc1ncc(N2CCOc3ccc(O[C@H]4CCN(C(=O)C5CCS(=O)(=O)CC5)C4)cc32)cc1C` [Example B93, (1,1-Dioxo-hexahydro-1lambda*6*-thiopyran-4-yl)-{(S)-3-[4-(6-methoxy-5-methyl-pyridin-3-yl)-3,4-dihydro-2H-benzo[1,4]oxazin-6-yloxy]-pyrrolidin-1-yl}-methanone], the pIC50 on PI3K delta is 8.40; against PI3K alpha, 6.28.

As to `COc1ncc(N2CCOc3ccc(O[C@H]4CCN(C(=O)C5CCOC5)C4)cc32)cc1C` (stereo partly drawn) [Example B94, {(S)-3-[4-(6-Methoxy-5-methyl-pyridin-3-yl)-3,4-dihydro-2H-benzo[1,4]oxazin-6-yloxy]-pyrrolidin-1-yl}-(tetrahydro-furan-3-yl)-methanone], the pIC50 is 8.30 against PI3K delta and 6.38 against PI3K alpha.

For the compound `COc1ncc(N2CCOc3ccc(O[C@H]4CCN(C(=O)c5ccc(=O)n(C)c5)C4)cc32)cc1C` [Example B95, 5-{(S)-3-[4-(6-Methoxy-5-methyl-pyridin-3-yl)-3,4-dihydro-2H-benzo[1,4]oxazin-6-yloxy]-pyrrolidine-1-carbonyl}-1-methyl-1H-pyridin-2-one], the pIC50 is 8.05 on PI3K delta and 6.36 at PI3K alpha.

For the compound `CCC(=O)N1CC[C@H](Oc2ccc3c(c2)N(c2ccc(S(=O)(=O)CC)nc2)CCO3)C1` [Example B96, 1-{(S)-3-[4-(6-Ethanesulfonyl-pyridin-3-yl)-3,4-dihydro-2H-benzo[1,4]oxazin-6-yloxy]-pyrrolidin-1-yl}-propan-1-one], the pIC50 at PI3K delta was 6.93; at PI3K alpha it was under 5.04.

On to `CCC(=O)N1CC[C@H](Oc2ccc3c(c2)N(c2cnc(S(C)(=O)=O)c(C)c2)CCO3)C1` [Example B97, 1-{(S)-3-[4-(6-Methanesulfonyl-5-methyl-pyridin-3-yl)-3,4-dihydro-2H-benzo[1,4]oxazin-6-yloxy]-pyrrolidin-1-yl}-propan-1-one], for which the pIC50 against PI3K delta was 7.67; at PI3K alpha, 6.32.

Turning to `COc1ncc(N2CCOc3ccc(O[C@H]4CCN(C(=O)C5CCOC5)C4)cc32)cc1F` (stereo partly drawn) [Example B98, {(S)-3-[4-(5-Fluoro-6-methoxy-pyridin-3-yl)-3,4-dihydro-2H-benzo[1,4]oxazin-6-yloxy]-pyrrolidin-1-yl}-(tetrahydro-furan-3-yl)-methanone], the negative logarithm of the IC50 (pIC50) on PI3K delta is 7.89; against PI3K alpha, 6.04.

For `COCC(=O)N1CC[C@H](Oc2ccc3c(c2)N(c2cnc(OC)c(F)c2)CCO3)C1` [Example B99, 1-{(S)-3-[4-(5-Fluoro-6-methoxy-pyridin-3-yl)-3,4-dihydro-2H-benzo[1,4]oxazin-6-yloxy]-pyrrolidin-1-yl}-2-methoxy-ethanone], the pIC50 against PI3K delta is 7.24; against PI3K alpha, 6.52.

Take `COc1ncc(N2CCOc3ccc(O[C@H]4CCN(C(=O)c5cocn5)C4)cc32)cc1F` [Example B100, {(S)-3-[4-(5-Fluoro-6-methoxy-pyridin-3-yl)-3,4-dihydro-2H-benzo[1,4]oxazin-6-yloxy]-pyrrolidin-1-yl}-oxazol-4-yl-methanone]: the figures for the pIC50 at PI3K delta and at PI3K alpha were 7.85 and 6.25, respectively.

Turning to `COc1ncc(N2CCOc3ccc(O[C@H]4CCN(C(=O)C5CCS(=O)(=O)C5)C4)cc32)cc1F` (stereo partly drawn) [Example B101, (1,1-Dioxo-tetrahydro-1lambda*6*-thiophen-3-yl)-{(S)-3-[4-(5-fluoro-6-methoxy-pyridin-3-yl)-3,4-dihydro-2H-benzo[1,4]oxazin-6-yloxy]-pyrrolidin-1-yl}-methanone], the values for the pIC50 on PI3K delta and on PI3K alpha were 7.82 and 6.33, respectively.

For the compound `COc1ncc(N2CCOc3ccc(O[C@H]4CCN(C(=O)c5cnco5)C4)cc32)cc1F` [Example B103, {(S)-3-[4-(5-Fluoro-6-methoxy-pyridin-3-yl)-3,4-dihydro-2H-benzo[1,4]oxazin-6-yloxy]-pyrrolidin-1-yl}-oxazol-5-yl-methanone], the pIC50 against PI3K delta was 7.34; on PI3K alpha, 6.62.

In the case of `COc1ncc(N2CCOc3ccc(O[C@H]4CCN(C(=O)c5cncnc5)C4)cc32)cc1F` [Example B104, {(S)-3-[4-(5-Fluoro-6-methoxy-pyridin-3-yl)-3,4-dihydro-2H-benzo[1,4]oxazin-6-yloxy]-pyrrolidin-1-yl}-pyrimidin-5-yl-methanone], the negative-log IC50 (pIC50) against PI3K delta was 6.79; against PI3K alpha, 5.86.

`COc1ncc(N2CCOc3ccc(O[C@H]4CCN(C(=O)C5CCS(=O)(=O)C5)C4)cc32)cc1Cl` (stereo partly drawn) [Example B105, {(S)-3-[4-(5-Chloro-6-methoxy-pyridin-3-yl)-3,4-dihydro-2H-benzo[1,4]oxazin-6-yloxy]-pyrrolidin-1-yl}-(1,1-dioxo-tetrahydro-1lambda*6*-thiophen-3-yl)-methanone]: the negative logarithm of the IC50 (pIC50) is 7.70 against PI3K delta and 6.12 at PI3K alpha.

In the case of `COc1ncc(N2CCOc3ccc(O[C@H]4CCN(C(=O)CCS(C)(=O)=O)C4)cc32)cc1Cl` [Example B106, 1-{(S)-3-[4-(5-Chloro-6-methoxy-pyridin-3-yl)-3,4-dihydro-2H-benzo[1,4]oxazin-6-yloxy]-pyrrolidin-1-yl}-3-methanesulfonyl-propan-1-one], the pIC50 against PI3K delta was 7.77; against PI3K alpha, 6.61.

Turning to `COc1ncc(N2CCOc3ccc(O[C@H]4CCN(C(=O)CCO)C4)cc32)cc1Cl` [Example B107, 1-{(S)-3-[4-(5-Chloro-6-methoxy-pyridin-3-yl)-3,4-dihydro-2H-benzo[1,4]oxazin-6-yloxy]-pyrrolidin-1-yl}-3-hydroxy-propan-1-one], the pIC50 was 8.40 against PI3K delta and 6.62 against PI3K alpha.

Consider `COc1ncc(N2CCOc3ccc(O[C@H]4CCN(C(=O)c5cnco5)C4)cc32)cc1Cl` [Example B108, {(S)-3-[4-(5-Chloro-6-methoxy-pyridin-3-yl)-3,4-dihydro-2H-benzo[1,4]oxazin-6-yloxy]-pyrrolidin-1-yl}-oxazol-5-yl-methanone], for which the pIC50 is over 8.52 against PI3K delta and 7.03 on PI3K alpha.

On to `COc1ncc(N2CCOc3ccc(O[C@H]4CCN(C(=O)CC#N)C4)cc32)cc1Cl` [Example B109, 3-{(S)-3-[4-(5-Chloro-6-methoxy-pyridin-3-yl)-3,4-dihydro-2H-benzo[1,4]oxazin-6-yloxy]-pyrrolidin-1-yl}-3-oxo-propionitrile], for which the negative-log IC50 (pIC50) on PI3K delta was over 8.52; against PI3K alpha, 6.93.

Consider `COc1ncc(N2CCOc3ccc(O[C@H]4CCN(C(=O)CS(C)(=O)=O)C4)cc32)cc1Cl` [Example B110, 1-{(S)-3-[4-(5-Chloro-6-methoxy-pyridin-3-yl)-3,4-dihydro-2H-benzo[1,4]oxazin-6-yloxy]-pyrrolidin-1-yl}-2-methanesulfonyl-ethanone], for which the pIC50 at PI3K delta is 8.52; at PI3K alpha, 6.83.

Values taken from US9539260B2, “Dihydro-benzo-oxazine and dihydro-pyrido-oxazine derivatives” (Novartis AG, priority 2012, dated 2017).
